Measurements reported in PubChem BioAssay (NCI).
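Each compound was tested at five concentrations against cells in 96-well plates for 48 hours. TGI: total growth inhibition.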

Key:
Experiment in all cases: NCI tumour cell line growth inhibition, 48 h
[1] = tested on: UACC-62 melanoma
[2] = tested on: SK-MEL-28 melanoma
[3] = tested on: OVCAR-5 ovarian
[4] = tested on: CCRF-CEM leukemia
[5] = tested on: MDA-MB-435
[6] = tested on: A498 renal
[7] = tested on: U251 CNS
[8] = tested on: COLO 205 colon
[9] = tested on: SF-295 CNS
[10] = tested on: SK-MEL-2 melanoma
[11] = tested on: MCF7 breast
[12] = tested on: NCI/ADR-RES ovarian
[13] = tested on: SF-268 CNS
[14] = tested on: HCT-116 colon
[15] = tested on: CAKI-1 renal
[16] = tested on: HT29 colon
[17] = tested on: NCI-H460 lung
[18] = tested on: MOLT-4 leukemia
[19] = tested on: SK-OV-3 ovarian
[20] = tested on: KM12 colon
[21] = tested on: HOP-92 NSCLC
[22] = tested on: IGROV1 ovarian
[23] = tested on: OVCAR-3 ovarian
[24] = tested on: K-562 leukemia
[25] = tested on: M14 melanoma
[26] = tested on: HL-60(TB) leukemia
[27] = tested on: UACC-257 melanoma
[28] = tested on: SN12C renal
[29] = tested on: HS 578T breast
[30] = tested on: SR leukemia
[31] = tested on: RXF 393 renal
[32] = tested on: T-47D breast
[33] = tested on: EKVX NSCLC
[34] = tested on: RPMI-8226 leukemia
[35] = tested on: OVCAR-8 ovarian
[36] = tested on: NCI-H522 lung
[37] = tested on: UO-31 renal
[38] = tested on: HOP-62 NSCLC
[39] = tested on: BT-549 breast
[40] = tested on: MDA-MB-231 breast
[41] = tested on: NCI-H23 lung
[42] = tested on: SNB-75 CNS
[43] = tested on: OVCAR-4 ovarian
[44] = tested on: SW-620 colon
[45] = tested on: ACHN renal
[46] = tested on: HCT-15 colon
[47] = tested on: PC-3 prostate
[48] = tested on: NCI-H226 lung
[49] = tested on: DU-145 prostate
[50] = tested on: A549 NSCLC
[51] = tested on: SF-539 CNS
[52] = tested on: 786-0 renal
[53] = tested on: SNB-19 CNS
[54] = tested on: MDA-N
[55] = tested on: SK-MEL-5 melanoma
[56] = tested on: TK-10 renal
[57] = tested on: MALME-3M melanoma
[58] = tested on: LOX IMVI melanoma
[59] = tested on: HCC-2998 colon

COc1cc(C2c3c(ccc4ccccc34)C(=O)C3CCC(=O)N32)cc(OC)c1OC (stereo unspecified)
TGI [1]: > 50 µM
TGI [2]: > 50 µM
TGI [3]: > 50 µM
TGI [4]: > 50 µM
TGI [5]: > 50 µM
TGI [6]: > 50 µM
TGI [7]: > 50 µM
TGI [8]: > 50 µM
TGI [9]: > 50 µM
TGI [10]: > 50 µM
TGI [11]: > 50 µM
TGI [12]: > 50 µM
TGI [13]: > 50 µM
TGI [14]: > 50 µM
TGI [15]: > 50 µM
TGI [16]: > 50 µM
TGI [17]: > 50 µM
TGI [18]: > 50 µM
TGI [19]: > 50 µM
TGI [20]: > 50 µM
TGI [21]: > 50 µM
TGI [22]: > 50 µM
TGI [23]: > 50 µM
TGI [24]: > 50 µM
TGI [25]: > 50 µM
TGI [26]: > 50 µM
TGI [27]: > 50 µM
TGI [28]: > 50 µM
TGI [29]: > 50 µM
TGI [30]: > 50 µM
TGI [31]: > 50 µM
TGI [32]: > 50 µM
TGI [33]: > 50 µM
TGI [34]: > 50 µM
TGI [35]: > 50 µM
TGI [36]: > 50 µM
TGI [37]: > 50 µM
TGI [38]: > 50 µM
TGI [39]: > 50 µM
TGI [40]: > 50 µM
TGI [41]: > 50 µM
TGI [42]: > 50 µM
TGI [43]: > 50 µM
TGI [44]: > 50 µM
TGI [45]: > 50 µM
TGI [46]: > 50 µM
TGI [47]: > 50 µM
TGI [48]: > 50 µM
TGI [49]: > 50 µM
TGI [50]: > 50 µM
TGI [51]: > 50 µM
TGI [52]: > 50 µM
TGI [53]: > 50 µM
TGI [54]: > 50 µM

N#CCCN(CCC#N)c1ccc(/C=C2\N=C(c3ccccc3)N(c3ccc(F)cc3)C2=O)cc1
TGI [1]: > 100 µM
TGI [2]: > 100 µM
TGI [3]: > 100 µM
TGI [5]: > 100 µM
TGI [6]: > 100 µM
TGI [7]: > 100 µM
TGI [8]: > 100 µM
TGI [9]: > 100 µM
TGI [10]: > 100 µM
TGI [11]: > 100 µM
TGI [55]: > 100 µM
TGI [12]: > 100 µM
TGI [13]: > 100 µM
TGI [14]: > 100 µM
TGI [15]: > 100 µM
TGI [16]: > 100 µM
TGI [17]: > 100 µM
TGI [18]: > 100 µM
TGI [19]: > 100 µM
TGI [20]: > 100 µM
TGI [21]: > 100 µM
TGI [22]: > 100 µM
TGI [23]: > 100 µM
TGI [24]: > 100 µM
TGI [25]: > 100 µM
TGI [27]: > 100 µM
TGI [28]: > 100 µM
TGI [29]: > 100 µM
TGI [30]: > 100 µM
TGI [31]: > 100 µM
TGI [32]: > 100 µM
TGI [33]: > 100 µM
TGI [34]: > 100 µM
TGI [35]: > 100 µM
TGI [37]: > 100 µM
TGI [38]: > 100 µM
TGI [39]: > 100 µM
TGI [40]: > 100 µM
TGI [56]: > 100 µM
TGI [42]: > 100 µM
TGI [43]: > 100 µM
TGI [44]: > 100 µM
TGI [45]: > 100 µM
TGI [46]: > 100 µM
TGI [47]: > 100 µM
TGI [48]: > 100 µM
TGI [57]: > 100 µM
TGI [49]: > 100 µM
TGI [50]: > 100 µM
TGI [51]: > 100 µM
TGI [52]: > 100 µM
TGI [53]: > 100 µM
TGI [58]: > 100 µM
TGI [54]: > 100 µM

CN(C)CC(O)c1ccc(Cl)c2ccccc12 (stereo unspecified)
TGI [1]: 34 µM
TGI [2]: 36.3 µM
TGI [3]: > 100 µM
TGI [4]: 53.8 µM
TGI [5]: 61.2 µM
TGI [6]: 45.9 µM
TGI [7]: > 90.6 µM
TGI [8]: 49.2 µM
TGI [9]: > 63.6 µM
TGI [10]: 39.7 µM
TGI [59]: 29.9 µM
TGI [11]: > 81.8 µM
TGI [55]: 31.4 µM
TGI [12]: > 100 µM
TGI [13]: > 100 µM
TGI [14]: > 100 µM
TGI [15]: > 96.6 µM
TGI [16]: > 100 µM
TGI [17]: > 100 µM
TGI [18]: 55.8 µM
TGI [19]: > 100 µM
TGI [20]: > 100 µM
TGI [21]: > 68.2 µM
TGI [22]: > 85.7 µM
TGI [23]: > 100 µM
TGI [25]: 33 µM
TGI [26]: > 78 µM
TGI [27]: 38.2 µM
TGI [28]: > 100 µM
TGI [29]: > 100 µM
TGI [31]: > 64.9 µM
TGI [32]: 84.4 µM
TGI [33]: > 100 µM
TGI [34]: 11 µM
TGI [35]: > 100 µM
TGI [36]: > 100 µM
TGI [37]: > 62.2 µM
TGI [38]: > 100 µM
TGI [39]: > 100 µM
TGI [40]: > 73.4 µM
TGI [41]: > 100 µM
TGI [56]: > 94 µM
TGI [42]: > 89.1 µM
TGI [43]: > 100 µM
TGI [44]: > 100 µM
TGI [45]: > 100 µM
TGI [46]: > 100 µM
TGI [47]: > 72.3 µM
TGI [48]: > 57 µM
TGI [57]: 86 µM
TGI [49]: > 100 µM
TGI [50]: > 100 µM
TGI [51]: > 100 µM
TGI [52]: > 100 µM
TGI [53]: > 100 µM
TGI [58]: > 66.6 µM
TGI [54]: > 63.8 µM

CN1CCN(C(=S)N(C)C(=O)c2ccco2)CC1
TGI [1]: > 100 µM
TGI [3]: > 100 µM
TGI [4]: > 100 µM
TGI [5]: > 100 µM
TGI [7]: > 100 µM
TGI [8]: > 100 µM
TGI [9]: > 100 µM
TGI [10]: > 100 µM
TGI [59]: > 100 µM
TGI [11]: > 100 µM
TGI [55]: > 100 µM
TGI [16]: > 100 µM
TGI [17]: > 100 µM
TGI [18]: > 100 µM
TGI [20]: > 100 µM
TGI [21]: > 100 µM
TGI [22]: > 100 µM
TGI [23]: > 100 µM
TGI [24]: > 100 µM
TGI [25]: > 100 µM
TGI [27]: > 100 µM
TGI [28]: > 100 µM
TGI [29]: > 100 µM
TGI [30]: > 100 µM
TGI [31]: > 100 µM
TGI [32]: > 100 µM
TGI [34]: > 100 µM
TGI [35]: > 100 µM
TGI [36]: > 100 µM
TGI [37]: > 100 µM
TGI [39]: > 100 µM
TGI [40]: > 100 µM
TGI [41]: > 100 µM
TGI [56]: > 100 µM
TGI [43]: > 100 µM
TGI [44]: > 100 µM
TGI [45]: > 100 µM
TGI [46]: > 100 µM
TGI [48]: > 100 µM
TGI [57]: > 100 µM
TGI [49]: > 100 µM
TGI [50]: > 100 µM
TGI [52]: > 100 µM
TGI [53]: > 100 µM
TGI [58]: > 100 µM
TGI [54]: > 100 µM
